System: A431 cells
Assay: Apoptosis, annexin V/propidium iodide (AV/PI) test
Type: cell-based, human
Details: 12 h; for death by targeted apoptosis of mutated cancer cells: A431 vs HEK001, linalool 320 nL/mL, carvacrol 60 nL/mL, thymol 30 nL/mL; for cytotoxic efficacy compared with the complex essential oils: concentrations equal to those present in the essential oil treatments
Description: These three molecules were incubated for 12 h with non-mutated immortalized keratinocytes (HEK001) and mutated cancerous keratinocytes (A431). The percentage of cells in apoptosis was measured by the annexin V/propidium iodide test. The concentrations of the molecules used were equal to those present during the treatments with the essential oils. Example: the concentration of linalool used here represents the equivalent of 80% of linalool present in the essential oil of rosewood.
Annexin V/Propidium Iodide Test:
One of the markers for apoptosis is the translocation of phosphatidyl-serine from the internal face towards the external face of the plasma membrane (translocation, allowing apoptotic bodies to be recognized and phagocyted by the macrophages).
The AV/PI test can be used to detect this event because of the affinity of the protein annexin V for phosphatidyl-serine. Propidium iodide, which targets DNA, can be used to distinguish early apoptotic cells from cells in late apoptosis and/or in necrosis.
After the desired treatment time, the medium was eliminated, the cells were harvested (by trypsinization), centrifuged and rinsed in 4 mL of PBS 1×. Tagging was carried out following the instructions of the manufacturer (Kit Vybrant, Molecular Probe). The cells were rapidly taken up in 100 μl of tagging buffer, to which 6 μl of annexin V and 3 μg/mL of propidium iodide per sample was added. The cells were then incubated for 30 min in the dark (at ambient temperature). Four hundred μL of tagging buffer was added before measuring the fluorescence of the annexin V (at 530 nm) and of the propidium iodide (at 610 nm).

With `C=CC(C)(O)CCC=C(C)C` (centres unmarked) [linalool] the “death by targeted apoptosis of mutated cancer cells” value (“death by targeted apoptosis” for short) was “qualitatively conserved” and the “cytotoxic efficacy compared with the complex essential oils” value was “lower than with complex essential oils”.

With `Cc1ccc(C(C)C)c(O)c1` [thymol] the “apoptotic A431 cells” value (30 nL/mL) was “approximately 15%”, the “death by targeted apoptosis” value was “qualitatively conserved” and the “cytotoxic efficacy compared with the complex essential oils” value was “lower than with complex essential oils”.

`Cc1ccc(C(C)C)cc1O` [carvacrol] was tested, and the “apoptotic A431 cells” value (60 nL/mL) was ~25%, the “death by targeted apoptosis” value was “qualitatively conserved” and the “cytotoxic efficacy compared with the complex essential oils” value was “lower than with complex essential oils”.

From patent US9040103B2, “Use of essential oil of oregano and of rosewood, or constituents thereof, in the therapeutic treatment of keratoses” (L'Oreal, priority 2010, dated 2015)
